# Reference: article PMC8443589, “Modelling human liver fibrosis in the context of non-alcoholic steatohepatitis using a microphysiological system” (Communications Biology, 2021)
# Columns and labels:
# [1] = test system: liver MPS NASH model (PHH, KC and HSC co-cultures); experiment: Cue study: pro-fibrotic biomarkers TIMP-1, pro-collagen 1, fibronectin (Fig 5c); type: cell-based, human; details: for Fibronectin (Fold change in cytokine production compared to control) / Pro-collagen 1 (Fold change in cytokine production compared to control) / TIMP-1 (Fold change in cytokine production compared to control): fat medium + cue
# Excerpt: Assessment of gene expression changes was supplemented by assessment of the secretome produced by NASH microtissues in the MPS after exposure to the various cues. Increased pro-inflammatory cytokine secretion is a defining characteristic in NASH patients, so we conducted a Luminex cytokine array covering 42 different biomarkers, cytokines and chemokines secreted into the culture media of the different microtissues at multiple time points. We consistently detected 27 out of the 42 biomarkers and observed that there was differential expression of cytokines and chemokines driven by the different cues applied to the micro-tissue (Fig. 5a, b). The LPS cue and the presence of higher NPC numbers were responsible for driving the largest increase in cytokine and chemokine release, with the largest increases in cytokines measured on day 14 (Fig. 5b). […] Similarly, to the cytokine production, these changes were not further enhanced by combining cues, as all the cue combinations containing TGFβ had the highest expression (Supp. Fig. 17c).
# Fig. 5 Systems biology interrogation of liver MPS NASH model to determine physiologically relevant cues that promote soluble biomarker changes to mimic advanced NASH disease state. PHH, KC and HSC co-cultures were cultured in the MPS platform under a variety of conditions for 14 days to test number of NPCs, presence of fat, fructose, cholesterol, LPS and TGFβ for effects on the soluble biomarker profile of the liver MPS NASH model. Expression of biomarkers, cytokines and chemokines were compared, all concentrations were normalised by Z-transformation to allow comparison and shown relative to mean for each marker (white = not detected). a Cytokine expression compared with varying levels of NPCs; b for the high NPC group in the presence of additional cues; c Expression of pro-fibrotic biomarkers with varying NPC content and with additional varying cues in high NPC condition (additional data in Supp. Fig. 17). d Graphical summary of the changes that occur in the NASH model in the presence of Fat and Fat + TGFβ. All data were generated from a minimum of three independent replicate samples per condition.
# The MPS LC12 plates consists of 12 individual bioreactors that contain pneumatically driven micro-pumps to recirculate cell culture medium through a collagen-coated scaffold. Cells were cultured using the protocol previously described[20],[21], but briefly, PHH were seeded at a density of 6 × 10^5 viable cells per well on the LC12 plates with each NPC population (KC and/or HSC) at a density of 6 × 10^4 viable cells per well. Each well contained a final volume of 1.6 mL of medium per well and maintained under a flow rate of 1.0 µL/s. Cells were seeded in Williams E medium containing primary hepatocyte thawing and plating supplements (Life Technologies, USA) and cultured initially under downward flow for 8 h before the flow was automatically reversed to upward flow for the next 16 h of culture. Microtissues were then cultured in either HEP-Lean or HEP-Fat medium, both media’s are proprietary to CN Bio Innovations Ltd. The HEP-Fat medium is a derivative of the HEP-LEAN medium and contains a mixture of saturated and unsaturated FFAs, as well as physiologically relevant quantities of insulin and sugars. Complete media changes were performed on all wells every 48–72 h. For certain experiments, the media was supplemented with additional additives from day 4 onwards: 1 ng/ml LPS (lipopolysaccharides from Escherichia coli O111:B4) (Sigma Aldrich, UK), 1 ng/ml recombinant TGF beta 1 protein (Abcam, UK); 500 µM Fructose (Sigma Aldrich, UK), 50 µg/ml Cholesterol (Sigma Aldrich, UK). […]
# [2] = parameters: method as in PMID 27743502; details: cited from earlier work
Molecule,"Fibronectin (Fold change in cytokine production compared to control) ([1]; Day 6, high NPC)","Pro-collagen 1 (Fold change in cytokine production compared to control) ([1]; Day 6, high NPC)","TIMP-1 (Fold change in cytokine production compared to control) ([1]; Day 6, high NPC)","Fibronectin (Fold change in cytokine production compared to control) ([1]; Day 11, high NPC)","Pro-collagen 1 (Fold change in cytokine production compared to control) ([1]; Day 11, high NPC)","TIMP-1 (Fold change in cytokine production compared to control) ([1]; Day 11, high NPC)","Fibronectin (Fold change in cytokine production compared to control) ([1]; Day 14, high NPC)","Pro-collagen 1 (Fold change in cytokine production compared to control) ([1]; Day 14, high NPC)","TIMP-1 (Fold change in cytokine production compared to control) ([1]; Day 14, high NPC)","pro-collagen 1, fibronectin and TIMP-1 expression ([1]; cue study)",Plasma protein binding [2] [%]
"TGFβ: recombinant TGF beta 1 protein (Abcam), 1 ng/ml cue",1.218,1.954,2.132,1.379,1.672,1.0946,0.05285,0.4105,0.9486,most significant increases,–
CC[C@H]1[C@@H](O)[C@@H]2[C@H](CC[C@]3(C)[C@@H]([C@H](C)CCC(=O)O)CC[C@@H]23)[C@@]2(C)CC[C@@H](O)C[C@@H]12 [Obeticholic acid],–,–,–,–,–,–,–,–,–,–,>99
